Data published in paper PMC8562313, “Cytotoxicity of Amino‐BODIPY Modulated via Conjugation with 2‐Phenyl‐3‐Hydroxy‐4(1H)‐Quinolinones” (ChemistryOpen, 2021).
Where two headings read alike, the source gives them in different places.

Experiments:
cancer cell lines = conditions: cited from earlier work
[1] = tested on: HCT116 (colorectal carcinoma); experiment: Cytotoxic activity against HCT116; type: cell-based; conditions: Homo sapiens, HCT-116; average of at least three independent experiments
Method: (§1) Finally, the amino‐BODIPY 16 and all prepared conjugates 1–15 were tested for cytotoxic activity against selected cancer cell lines (Table 1). The tests were performed on cancer cell lines derived from solid tumors as well as hematological malignancies: CCRF‐CEM (acute lymphoblastic leukemia), K562 (chronic myeloid leukemia), A549 (lung adenocarcinoma), colorectal carcinoma cell lines HCT116 with and without functional p53 protein HCT116p53, respectively. The panel also included chemoresistant subclone CCRF‐CEM‐DNR (resistant to daunorubicine) overexpressing P‐glycoprotein and/or lung resistance‐related protein (LRP), which are pumps or detoxifying systems responsible for the most common forms of clinical resistance. To evaluate non‐tumor cells′ toxicity, we used human skin fibroblast cell line BJ and lung fibroblast cell line MRC‐5. […] This dye is also slightly toxic to normal fibroblast BJ and MRC with IC50>40 μM and low‐density seeding variants BJ‐LD and MRC‐LD with higher proliferation and no contact inhibition. Connection of amino‐BODIPY 16 with 3‐HQs via non‐cleavable maleimide linker (conjugates 6–10) as well as via cleavable linker (compounds 11–15) causes higher selectivity toward CCRF‐CEM lines. […] The selectivity of conjugates toward leukemia cells could be caused by interaction with a specific target for the CCRF‐CEM or K562 cells, respectively, or by particular transport to these cell lines. The later reason could explain the lower toxicity of amino‐BODIPY released from the conjugate compared to free amino‐BODIPY 16 directly applied to the cells.

[2] = tested on: A549 (lung adenocarcinoma); experiment: Cytotoxic activity against A549; type: cell-based; conditions: Homo sapiens, average of at least three independent experiments
Method: as §1

[3] = tested on: BJ‐LD (low‐density seeding variant); experiment: Toxicity to non-tumor fibroblasts BJ-LD; type: cell-based; conditions: Homo sapiens, Fibroblast, higher proliferation, no contact inhibition
Method: as §1

[4] = tested on: CCRF‐CEM‐DNR (resistant to daunorubicine); experiment: Cytotoxic activity against CEM-DNR; type: cell-based; conditions: Homo sapiens, daunorubicine-resistant subclone, average of at least three independent experiments
Method: as §1

[5] = tested on: skin fibroblast cell line BJ; experiment: Toxicity to non-tumor fibroblasts BJ; type: cell-based, human
Method: as §1

[6] = tested on: HCT116p53 (colorectal carcinoma); experiment: Cytotoxic activity against HCT116p53; type: cell-based; conditions: average of at least three independent experiments
Method: as §1

U2OS = experiment: Cytotoxic activity against U2OS; type: cell-based; conditions: Homo sapiens, average of at least three independent experiments
[7] = tested on: lung fibroblast cell line MRC‐5; experiment: Toxicity to non-tumor fibroblasts MRC; type: cell-based, human
Method: as §1

[8] = tested on: K562 (chronic myeloid leukemia); experiment: Cytotoxic activity against K562; type: cell-based; conditions: Homo sapiens, average of at least three independent experiments
Method: as §1

K562‐TAX = experiment: Cytotoxic activity against K562-TAX; type: cell-based; conditions: average of at least three independent experiments
[9] = tested on: CCRF‐CEM (acute lymphoblastic leukemia); experiment: Cytotoxic activity against CCRF-CEM; type: cell-based; conditions: Homo sapiens, average of at least three independent experiments
Method: as §1

[10] = tested on: MRC‐LD (low‐density seeding variant); experiment: Toxicity to non-tumor fibroblasts MRC-LD; type: cell-based; conditions: Homo sapiens, Fibroblast, higher proliferation, no contact inhibition
Method: as §1

[11] = GSH-mediated cleavage monitored by LC/MS; type: physicochemical; conditions: 5 mM GSH, 5 μM conjugate 11 in HEPES buffer, 7.4 pH, 37 °C
Excerpt: As reported previously, the GSH mediated cleavage of the disulfide linker results in the release of the 3‐HQ derivative together with the Amino‐BODIPY.[30] […] As the mechanism of GSH‐mediated cleavage and LC/MS analysis in Figure 2A and 2B depict nucleophilic thiol group on glutathione attacks the disulfide bond resulting in the formation of GSH adducts 19 and 20. Intermediate 19 further reacts with excess of GSH and self‐immolative linker is cyclized while free Amino‐BODIPY 16 is released.
Figure 2 (A) Mechanism of GSH‐mediated cleavage of conjugate 11 (5 mM GSH, 5 μM conjugate 11 in HEPES buffer, 7.4 pH, 37 °C). (B) Time‐dependent stability of compounds 1, 11, 16, 19 and 20 monitored by LC/MS. (C) Excitation/emission spectra of the conjugate 11 and the released Amino‐BODIPY 16 enabling the OFF‐ON fluorescence effect when excitation at 485 nm and emission at 530 nm is applied.

[12] = Homo sapiens, MRC5, non-tumor lung fibroblasts

Stability of cleavage intermediate by LC/MS [11] | Structure (SMILES) | Activity and selectivity toward cancer cells (cancer cell lines) | Activity and selectivity against cancer cell lines (cancer cell lines) | Activity against various cancer cell lines (cancer cell lines; reported previously, no reference given) | Cytotoxicity against cancer cells (cancer cell lines) | Activity against cancer cells (cancer cell lines) | IC50 [1] [µM] | IC50 [2] [µM] | IC50 [3] [µM] | IC50 [4] [µM] | IC50 ([5]; Homo sapiens, Skin fibroblast) [µM] | IC50 [6] [µM] | IC50 (U2OS) [µM] | IC50 [7, 12] [µM] | IC50 [8] [µM] | IC50 (K562‐TAX) [µM] | IC50 [9] [µM] | IC50 [10] [µM] | IC50 [5] [µM] | IC50 ([7]; non-tumor lung fibroblasts) [µM]
 | NC(=O)c1cc(-c2[nH]c3ccccc3c(=O)c2O)ccc1N1CCCCC1 [2‐(3‐carboxamide‐4‐piperid‐1‐ylphenyl)‐3‐hydroxy‐4(1H)‐quinolinone] | significant activity and increased selectivity |  |  |  |  |  |  |  |  |  |  |  |  |  |  |  |  |  | 
 | O=c1c(O)c(-c2ccc(N3CCCCC3)c([N+](=O)[O-])c2)[nH]c2ccccc12 [2‐(3‐nitro‐4‐piperid‐1‐ylphenyl)‐3‐hydroxy‐4(1H)‐quinolinone] |  | significant activity but low selectivity |  |  |  |  |  |  |  |  |  |  |  |  |  |  |  |  | 
 | Nc1c(Cl)cc(-c2[nH]c3ccccc3c(=O)c2O)cc1Cl [2‐(4‐amino‐3,5‐dichlorophenyl)‐3‐hydroxy‐4(1H)‐quinolinone] |  |  | active |  |  |  |  |  |  |  |  |  |  |  |  |  |  |  | 
 | O=c1c(O)c(-c2ccc(F)cc2)[nH]c2ccccc12 [2‐(4‐fluorophenyl)‐3‐hydroxy‐4(1H)‐quinolinone] |  |  |  | low cytotoxicity |  |  |  |  |  |  |  |  |  |  |  |  |  |  | 
 | O=c1c(O)c(-c2ccccc2)[nH]c2ccccc12 [2‐phenyl‐3‐hydroxy‐4(1H)‐quinolinone] |  |  |  |  | no activity |  |  |  |  |  |  |  |  |  |  |  |  |  | 
 | Cc1cc(C)n2c1C=C1C=CC(NC(=O)OCCCN3C(=O)CC(SCC(NC(=O)c4ccc5c(=O)c(O)c(-c6ccccc6)[nH]c5c4)C(N)=O)C3=O)=[N+]1[B-]2(F)F (stereo not drawn) [Compound 6] |  |  |  |  |  | > 50 | > 50 | > 50 | > 50 | > 50 | > 50 | > 50 | > 50 | > 50 | > 50 | 14.6 | > 50 |  | 
 | Cc1cc(C)n2c1C=C1C=CC(NC(=O)OCCCN3C(=O)CC(SCC(NC(=O)c4ccc5c(=O)c(O)c(-c6ccc(F)cc6)[nH]c5c4)C(N)=O)C3=O)=[N+]1[B-]2(F)F (stereo not drawn) [Compound 7] |  |  |  |  |  | > 50 | > 50 | > 50 | > 50 | > 50 | > 50 | > 50 | > 50 | > 50 | > 50 | 6.37 | > 50 |  | 
 | Cc1cc(C)n2c1C=C1C=CC(NC(=O)OCCCN3C(=O)CC(SCC(NC(=O)c4ccc5c(=O)c(O)c(-c6cc(Cl)c(N)c(Cl)c6)[nH]c5c4)C(N)=O)C3=O)=[N+]1[B-]2(F)F (stereo not drawn) [Compound 8] |  |  |  |  |  | > 50 | > 50 | > 50 | > 50 | > 50 | > 50 | > 50 | > 50 | > 50 | > 50 | 12.7 | > 50 |  | 
 | Cc1cc(C)n2c1C=C1C=CC(NC(=O)OCCCN3C(=O)CC(SCC(NC(=O)c4ccc5c(=O)c(O)c(-c6ccc(N7CCCCC7)c([N+](=O)[O-])c6)[nH]c5c4)C(N)=O)C3=O)=[N+]1[B-]2(F)F (stereo not drawn) [Compound 9] |  |  |  |  |  | > 50 | > 50 |  | > 50 | > 50 | > 50 | > 50 | > 50 | 4.05 | > 50 | > 50 |  |  | 
 | Cc1cc(C)n2c1C=C1C=CC(NC(=O)OCCCN3C(=O)CC(SCC(NC(=O)c4ccc5c(=O)c(O)c(-c6ccc(N7CCCCC7)c(C(N)=O)c6)[nH]c5c4)C(N)=O)C3=O)=[N+]1[B-]2(F)F (stereo not drawn) [Compound 10] |  |  |  |  |  | > 50 | > 50 | > 50 | > 50 | > 50 | > 50 | > 50 | > 50 | > 50 | 49.6 | 5.1 | > 50 |  | 
 | Cc1cc(C)n2c1C=C1C=CC(NC(=O)OCCSSCC(NC(=O)c3ccc4c(=O)c(O)c(-c5ccccc5)[nH]c4c3)C(N)=O)=[N+]1[B-]2(F)F (stereo not drawn) [Compound 11] |  |  |  |  |  | > 50 | 49.9 | > 50 | 34.4 | > 50 | > 50 | > 50 | > 50 | 49.8 | 39.8 | 19.7 | > 50 |  | 
 | Cc1cc(C)n2c1C=C1C=CC(NC(=O)OCCSSCC(NC(=O)c3ccc4c(=O)c(O)c(-c5ccc(F)cc5)[nH]c4c3)C(N)=O)=[N+]1[B-]2(F)F (stereo not drawn) [Compound 12] |  |  |  |  |  | > 50 | 46.4 | > 50 | 26.5 | > 50 | 49.8 | 42.3 | > 50 | 44.6 | 33.6 | 8.14 | > 50 |  | 
 | Cc1cc(C)n2c1C=C1C=CC(NC(=O)OCCSSCC(NC(=O)c3ccc4c(=O)c(O)c(-c5cc(Cl)c(N)c(Cl)c5)[nH]c4c3)C(N)=O)=[N+]1[B-]2(F)F (stereo not drawn) [Compound 13] |  |  |  |  |  | > 50 | > 50 | > 50 | 40.1 | > 50 | > 50 | > 50 | > 50 | 41.4 | 41.8 | 2.59 | > 50 |  | 
 | Cc1cc(C)n2c1C=C1C=CC(NC(=O)OCCSSCC(NC(=O)c3ccc4c(=O)c(O)c(-c5ccc(N6CCCCC6)c([N+](=O)[O-])c5)[nH]c4c3)C(N)=O)=[N+]1[B-]2(F)F (stereo not drawn) [Compound 14] |  |  |  |  |  | 39.7 | 46.3 | > 50 | 37.9 | > 50 | 42.6 | 44.1 | > 50 | 29.9 | 40.6 | 1.52 | > 50 |  | 
 | Cc1cc(C)n2c1C=C1C=CC(NC(=O)OCCSSCC(NC(=O)c3ccc4c(=O)c(O)c(-c5ccc(N6CCCCC6)c(C(N)=O)c5)[nH]c4c3)C(N)=O)=[N+]1[B-]2(F)F (stereo not drawn) [Compound 15] |  |  |  |  |  | > 50 | > 50 | > 50 | 46.2 | > 50 | > 50 | > 50 | > 50 | > 50 | 46.2 | > 50 | > 50 |  | 
 | Cc1cc(C)n2c1C=C1C=CC(N)=[N+]1[B-]2(F)F [Compound 16, amino‐BODIPY] |  |  |  |  |  | 11.6 | 47.2 | 28.1 | 5.08 | > 40 | 12.7 | 19.8 | > 40 | 3.29 | 6.41 | 4.25 | 26.9 | 49.7 | 40.1
relatively stable | NC(=O)C(CSSC[C@H](NC(=O)CC[C@H](N)C(=O)O)C(=O)NCC(=O)O)NC(=O)c1ccc2c(=O)c(O)c(-c3ccccc3)[nH]c2c1 (stereo partly drawn) [Compound 20] |  |  |  |  |  |  |  |  |  |  |  |  |  |  |  |  |  |  | 
